Patent US4394504A, “Cephalosporin derivatives” (American Home Products Corporation, priority 1981, dated 1983)
≈ marks a conversion by molar mass, not a printed value. Read-outs that look alike come from different tables or passages of the source.

Key:
[1] = system: Pseudomonas aeruginosa (PS AE), strain 10145; assay: Microdilution tube dilution assay MIC, Pseudomonas aeruginosa 10145; assay type: cell-based; conditions: Mueller Hinton Broth, PS AE 10145
Source text: (§1) The following examples are presented for purposes of illustration and should not be construed as limitations upon the true scope of this invention.
PS AE--Pseudomonas aeruginosa,
(§2) The product of Example 18 was reexamined by the microdilution method of tube dilution assay employing Mueller Hinton Broth whereby standardized cultures were introduced into serially diluted antibiotic from Example 18.

[2] = system: Staphylococcus aureus (ST AU), strain CHP; assay: Microdilution tube dilution assay MIC, Staphylococcus aureus CHP; assay type: cell-based; conditions: Mueller Hinton Broth
Source text: as §1
(§3) ST AU--Staphylococcus aureus,
as §2

[3] = system: Bordetella brochiseptica (BO BR), strain 4617; assay: Microdilution tube dilution assay MIC, Bordetella brochiseptica 4617; assay type: cell-based; conditions: Mueller Hinton Broth, BO BR 4617
Source text: as §1
BO BR--Bordetella brochiseptica,
as §2

[4] = system: Proteus mirablis (PR MI), strain 9921; assay: Microdilution tube dilution assay MIC, Proteus mirablis 9921; assay type: cell-based
Source text: as §1, §2

[5] = system: Staphylococcus aureus (ST AU), strain 53-180; assay: Microdilution tube dilution assay MIC, Staphylococcus aureus 53-180; assay type: cell-based; conditions: Mueller Hinton Broth, ST AU 53-180
Source text: as §1, §3, §2

[6] = system: Bacillus subtilis (BA SU), strain 6633; assay: Microdilution tube dilution assay MIC, Bacillus subtilis 6633; assay type: cell-based
Source text: as §1
BA SU--Bacillus subtilis,
as §2

[7] = system: Herellea species (HE SP), strain 9955; assay: Microdilution tube dilution assay MIC, Herellea species 9955; assay type: cell-based; conditions: Mueller Hinton Broth, HE SP 9955
Source text: as §1, §2

[8] = system: Salmonella paratyphi (SA PA), strain 11737; assay: Microdilution tube dilution assay MIC, Salmonella paratyphi 11737; assay type: cell-based; conditions: Salmonella enterica
[9] = system: Proteus vulgaris (PR VU), strain 6896; assay: Microdilution tube dilution assay MIC, Proteus vulgaris 6896; assay type: cell-based; conditions: Mueller Hinton Broth, PR VU 6896
Source text: as §1, §2

[10] = system: Klebsiella pneumoniae (KL PN), strain 10031; assay: Microdilution tube dilution assay MIC, Klebsiella pneumoniae 10031; assay type: cell-based; conditions: Mueller Hinton Broth, KL PN 10031
Source text: as §1
KL PN--Klebsiella pneumoniae,
as §2

[11] = system: Enterobacter aerogenes (EN AE), strain 13048; assay: Microdilution tube dilution assay MIC, Enterobacter aerogenes 13048; assay type: cell-based; conditions: Klebsiella aerogenes
Source text: as §1
EN AE--Enterobacter aerogenes,
as §2

[12] = system: Staphylococcus aureus (ST AU), strain 209P; assay: Microdilution tube dilution assay MIC, Staphylococcus aureus 209P; assay type: cell-based
Source text: as §1, §3, §2

[13] = system: Staphylococcus aureus (ST AU), strain SMITH; assay: Microdilution tube dilution assay MIC, Staphylococcus aureus SMITH; assay type: cell-based; conditions: Mueller Hinton Broth
Source text: as §1, §3, §2

ES IN, strain 65-1 = assay: Microdilution tube dilution assay MIC, ES IN 65-1; assay type: cell-based, Escherichia intermedia; conditions: Citrobacter intermedius
Source text: as §1
ES IM--Escherichia intermedia.
as §2

[14] = system: Escherichia coli (ES CO), strain 9637; assay: Microdilution tube dilution assay MIC, Escherichia coli 9637; assay type: cell-based; conditions: Mueller Hinton Broth, ES CO 9637
Source text: as §1, §2

[15] = system: Enterobacter cloacae (EN CL), strain 65-1; assay: Agar serial dilution MIC, Enterobacter cloacae 65-1; assay type: cell-based; conditions: EN CL 65-1
Source text: (§4) The antibacterial compounds of this invention are effective against gram-positive and gram-negative test organisms at inhibitory concentrations at or below 250 micrograms per milliliter using the well-known and scientifically accepted agar serial dilution technique. Thus, the antibacterial agents of this invention are useful in the fields of comparative pharmacology and microbiology and may be used in the treatment of infections amenable to treatment with cephalosporins and penicillins such as bovine mastitis as well as in the eradication of bacterial colonies outside the animal host.
as §1
EN CL--Enterobacter cloacae, […]

[16] = system: Salmonella paratyphi (SA PA), strain 11737; assay: Agar serial dilution MIC, Salmonella paratyphi 11737; assay type: cell-based; conditions: Salmonella enterica
Source text: as §4, §1
SA PA--Salmonella paratyphi, […]

[17] = system: Escherichia coli (ES CO), strain 9637; assay: Agar serial dilution MIC, Escherichia coli 9637; assay type: cell-based; conditions: ES CO 9637
Source text: as §4, §1

[18] = system: Proteus mirablis (PR MI), strain 9921; assay: Agar serial dilution MIC, Proteus mirablis 9921; assay type: cell-based
Source text: as §4, §1

[19] = system: Staphylococcus aureus (ST AU), strain SMITH; assay: Agar serial dilution MIC, Staphylococcus aureus SMITH; assay type: cell-based
Source text: as §4, §1
(§5) ST AU--Staphylococcus aureus, […]

[20] = system: Bacillus subtilis (BA SU), strain 6633; assay: Agar serial dilution MIC, Bacillus subtilis 6633; assay type: cell-based
Source text: as §4, §1
BA SU--Bacillus subtilis, […]

[21] = system: Staphylococcus aureus (ST AU), strain 6538P; assay: Agar serial dilution MIC, Staphylococcus aureus 6538P; assay type: cell-based; conditions: ST AU 6538P
Source text: as §4, §1, §5

[22] = system: Klebsiella pneumoniae (KL PN), strain 10031; assay: Agar serial dilution MIC, Klebsiella pneumoniae 10031; assay type: cell-based; conditions: KL PN 10031
Source text: as §4, §1
KL PN--Klebsiella pneumoniae, […]

[23] = system: Staphylococcus aureus (ST AU), strain 53-180; assay: Agar serial dilution MIC, Staphylococcus aureus 53-180; assay type: cell-based
Source text: as §4, §1, §5

[24] = system: Enterobacter aerogenes (EN AE), strain 13048; assay: Agar serial dilution MIC, Enterobacter aerogenes 13048; assay type: cell-based; conditions: Klebsiella aerogenes, EN AE 13048
Source text: as §4, §1
EN AE--Enterobacter aerogenes, […]

[25] = system: Proteus vulgaris (PR VU), strain 6896; assay: Agar serial dilution MIC, Proteus vulgaris 6896; assay type: cell-based
Source text: as §4, §1

[26] = system: Staphylococcus aureus (ST AU), strain CHP; assay: Agar serial dilution MIC, Staphylococcus aureus CHP; assay type: cell-based
Source text: as §4, §1, §5

AC CA, strain 9955 = assay: Agar serial dilution MIC, AC CA 9955; assay type: cell-based
Source text: as §4, §1

[27] = system: Bordetella brochiseptica (BO BR), strain 4617; assay: Agar serial dilution MIC, Bordetella brochiseptica 4617; assay type: cell-based; conditions: BO BR 4617
Source text: as §4, §1
BO BR--Bordetella brochiseptica, […]

SMILES	MIC [1] [µg/mL]	MIC [2] [µg/mL]	MIC [3] [µg/mL]	MIC [5] [µg/mL]	MIC [7] [µg/mL]	MIC [8] [µg/mL]	MIC [9] [µg/mL]	MIC [10] [ng/mL]	MIC [13] [µg/mL]	MIC [14] [µg/mL]	MIC [15] [µg/mL]	MIC [16] [µg/mL]	MIC [17] [µg/mL]	MIC [21] [µg/mL]	MIC [22] [µg/mL]	MIC [24] [µg/mL]	also measured
CO/N=C(\C(=O)N[C@@H]1C(=O)N2C(C(=O)O)=C(COC(C)=O)CS[C@H]12)c1csc(N)n1 [Cefotaxime, reference compound]	3.9 (≈ 8.56 µM)	3.9 (≈ 8.56 µM)	15.6 (≈ 34.3 µM)	0.976 (≈ 2.14 µM)	15.6 (≈ 34.3 µM)	0.0076 (≈ 0.0167 µM)	0.00023 (≈ 0.000505 µM)	0.06 (≈ 0.000132 µM)	0.244 (≈ 0.536 µM)	0.0038 (≈ 0.00834 µM)							MIC [4]: 0.0019 µg/mL (≈ 0.00417 µM); MIC [6]: 0.488 µg/mL (≈ 1.07 µM); MIC ([11]; microdilution, Mueller Hinton Broth, EN AE 13048, read-out: MIC): 0.0152 µg/mL (≈ 0.0334 µM); MIC ([12]; 209P): 0.488 µg/mL (≈ 1.07 µM); MIC (ES IN, strain 65-1; microdilution, Mueller Hinton Broth, ES IN 65-1, read-out: MIC): 0.0038 µg/mL (≈ 0.00834 µM)
CO/N=C(/C(=O)NC1C(=O)N2C(C(=O)O)=C(COC(C)=O)CSC12)c1cc(N)no1 (stereo not drawn) [Example 15, 3-Acetoxymethyl-7-[2-(3-Amino-5-Isoxazolyl)-2-anti-Methoxyiminoacetamido]-Ceph-3-em-4-Carboxylic Acid]											62.5 (≈ 142 µM)	15.6 (≈ 35.5 µM)	15.6 (≈ 35.5 µM)	7.81 (≈ 17.8 µM)	15.6 (≈ 35.5 µM)	62.5 (≈ 142 µM)	MIC ([18]; agar serial dilution, PR MI 9921, read-out: MIC): 7.81 µg/mL (≈ 17.8 µM); MIC ([19]; agar serial dilution, ST AU SMITH, read-out: MIC): 3.9 µg/mL (≈ 8.88 µM); MIC ([20]; agar serial dilution, BA SU 6633, read-out: MIC): 7.81 µg/mL (≈ 17.8 µM); MIC [23]: 15.6 µg/mL (≈ 35.5 µM); MIC ([25]; agar serial dilution, PR VU 6896, read-out: MIC): 31.3 µg/mL (≈ 71.2 µM); MIC [26]: 15.6 µg/mL (≈ 35.5 µM)
CO/N=C(\C(=O)NC1C(=O)N2C(C(=O)O)=C(COC(C)=O)CSC12)c1cc(N)no1 (stereo not drawn) [Example 18, 3-Acetoxymethyl-7-[2-(3-Amino-5-Isoxazolyl)-2-syn-Methoxy-Iminoacetamido]-Ceph-3-em-4-Carboxylic Acid]	125 (≈ 284 µM)	3.9 (≈ 8.88 µM)	125 (≈ 284 µM)	0.488 (≈ 1.11 µM)	62.5 (≈ 142 µM)	0.488 (≈ 1.11 µM)	0.122 (≈ 0.278 µM)	15.2 (≈ 0.0346 µM)	0.244 (≈ 0.555 µM)	0.122 (≈ 0.278 µM)	1.95 (≈ 4.44 µM)	0.488 (≈ 1.11 µM)	0.488 (≈ 1.11 µM)	1.95 (≈ 4.44 µM)	0.488 (≈ 1.11 µM)	31.3 (≈ 71.2 µM)	MIC (AC CA, strain 9955): 125 µg/mL (≈ 284 µM); MIC [18]: 0.488 µg/mL (≈ 1.11 µM); MIC [19]: 0.488 µg/mL (≈ 1.11 µM); MIC [20]: 0.488 µg/mL (≈ 1.11 µM); MIC ([4]; microdilution, Mueller Hinton Broth, PR MI 9921, read-out: MIC): 0.122 µg/mL (≈ 0.278 µM); MIC [27]: 250 µg/mL (≈ 569 µM); MIC ([6]; microdilution, Mueller Hinton Broth, BA SU 6633, read-out: MIC): 1.95 µg/mL (≈ 4.44 µM); MIC [11]: 0.976 µg/mL (≈ 2.22 µM); MIC ([23]; agar serial dilution, ST AU 53-180, read-out: MIC): 3.9 µg/mL (≈ 8.88 µM); MIC ([12]; microdilution, Mueller Hinton Broth, ST AU 209P, read-out: MIC): 0.244 µg/mL (≈ 0.555 µM); MIC (ES IN, strain 65-1): 0.488 µg/mL (≈ 1.11 µM); MIC [25]: 0.976 µg/mL (≈ 2.22 µM); MIC ([26]; agar serial dilution, ST AU CHP, read-out: MIC): 7.81 µg/mL (≈ 17.8 µM)
